Data taken from patent US20240148714A1, “Triple Negative Breast Cancer Treatment Method” (Exelixis, Inc., priority 2016, published 2024).
“Also recorded” adds a separate entry of the source.

Assays:
[1] = test system: plasma biomarkers; assay: Circulating biomarker assays: plasma proteins (multiplex arrays, ELISA); format: in vivo, human; parameters: plasma VEGF R2, Median / plasma bFGF, Median / plasma sPLT-3, Median / plasma VEGF, Median / plasma VEGF-D, Median / plasma sMET, Median: unit not given beside the values
Text: Circulating Biomarker Assays: Potential biomarkers of cabozantinib activity were identified by measuring plasma proteins at baseline, on day 8 of therapy, on day 1 of each cycle of therapy, and, if available, at the time of progression. Eight milliliters of blood was collected in purple top (plasma EDTA) vacutainers and shipped on wet ice to a Clinical Laboratory Improvement Amendments-certified core in the Steele Laboratories (Massachusetts General Hospital), where whole blood was separated by centrifugation into cellular fraction and plasma. The fraction of stem/progenitor cell, lymphocyte, and myeloid populations of total circulating mononuclear cells were counted by flow cytometry using a LSR-II cytometer and FACSDiva software in fresh blood samples using the following markers: CD3, CD4, CD8, CD14, CD25, CD34, CD45, CD56, CD127, and CD133 (Becton Dickinson, Franklin Lakes, NJ, www.bd.com). Plasma was prepared in the standard fashion and stored at −78° C. until collection and analysis of all samples. The biomarkers measured included VEGF, placental growth factor (PlGF), VEGF-C, VEGF-D, soluble VEGFR1 (sVEGFR1), basic fibroblast growth factor (bFGF), and sTie-2 (using a 7-plex Growth Factor array) and granulocyte-macrophage colony stimulating factor (GM-CSF), interferon gamma (IFN-g), tumor necrosis factor alpha (TNF-a), and interleukin-1beta (IL-1b), IL-2, IL-6, IL-8, IL-10, and IL-12 heterodimer p70 (using a 9-plex Inflammatory Factor array; both Meso Scale Discovery, Gaithersburg, MD, www.mesoscale.com); and HGF, sMET, carbonic anhydrase IX (CAIX), stromal cell-derived factor 1 a (SDF1a), and sVEGFR2 by single analyte enzyme-linked immunosorbent assay (R&D Systems, Minneapolis, MN, www.rndsystems.com). Descriptive statistics were used to summarize biomarker values at protocol-specific time points. […] The Wilcoxon signed rank test assessed biomarker change from day 1 to 8. Mixed effects linear models assessed the change in biomarker values at days 1, 8, 22, 43, and 64; values beyond day 64 were not analyzed because of the small number of patients still on protocol. In the mixed effects linear model, the fixed effects were times of assessment, and patients were entered as a random effect. Logarithmic transformation was used to achieve normality, when applicable. Baseline biomarkers were stratified by using the median values for the entire cohort. The log-rank test compared PFS among patients with low or high baseline sMET. All tests were conducted with two-sided […]. The Benjamini-Hochberg procedure was used to adjust p values to control the false discovery rate from evaluating multiple circulating biomarkers.

[2] = Participant-reported pain questionnaire and analgesic use; format: in vivo, human
Experimental: Study Design and Treatment: As indicated, this was a single-arm, two-stage phase II study assessing the efficacy of cabozantinib monotherapy in patients with mTNBC. Treatment consisted of oral dosing of cabozantinib at 60 mg daily over a 21-day cycle. Patients underwent radiographic restaging at 6 weeks and every 9 weeks thereafter. Patients with complete or partial RECIST responses continued to receive study treatment, whereas those with progressive disease were taken off study. Dose reductions for toxicity occurred if patients experienced grade 3 or 4 neutropenia or thrombocytopenia, or nonhematologic adverse events. From the starting dose of 60 mg daily, doses were reduced as needed to 40 and 20 mg daily. For the purposes of determining the effect of cabozantinib treatment on pain and analgesic medication use, pain was assessed by a participant-reported questionnaire, and daily analgesic medication usage was recorded. These were completed at baseline and during week 3, 6, and every 6 weeks thereafter until the date of the participant's last follow-up visit.

[3] = baseline to day 22, maintained at day 64

Compound: COc1cc2nccc(Oc3ccc(NC(=O)C4(C(=O)Nc5ccc(F)cc5)CC4)cc3)c2cc1OC [cabozantinib]
- plasma VEGF R2, Median ([1]; Day 1 (baseline)): 8.872
- plasma VEGF, Median ([1]; Day 1 (baseline)): 98
- plasma VEGF-D, Median ([1]; Day 1 (baseline)): 1.062
- plasma bFGF, Median ([1]; Day 1 (baseline)): 39
- plasma sMET, Median ([1]; Day 1 (baseline)): 795
- plasma sPLT-3, Median ([1]; Day 1 (baseline)): 1.24
- plasma VEGF R2, Median ([1]; Day 8): 8.475
- plasma VEGF, Median ([1]; Day 8): 188
- plasma VEGF-D, Median ([1]; Day 8): 1.419
- plasma bFGF, Median ([1]; Day 8): 41
- plasma sMET, Median ([1]; Day 8): 890
- plasma sPLT-3, Median ([1]; Day 8): 50
- plasma VEGF R2, Median ([1]; Day 22): 6.726
- plasma VEGF, Median ([1]; Day 22): 206
- plasma VEGF-D, Median ([1]; Day 22): 1.582
- plasma bFGF, Median ([1]; Day 22): 28
- plasma sMET, Median ([1]; Day 22): 902
- plasma sPLT-3, Median ([1]; Day 22): 90
- plasma VEGF R2, Median ([1]; Day 43): 5.812
- plasma VEGF, Median ([1]; Day 43): 206
- plasma VEGF-D, Median ([1]; Day 43): 1.437
- plasma bFGF, Median ([1]; Day 43): 33
- plasma sMET, Median ([1]; Day 43): 903
- plasma sPLT-3, Median ([1]; Day 43): 124
- plasma VEGF R2, Median ([1]; Day 64): 5.968
- plasma VEGF-D, Median ([1]; Day 64): 1.429
- plasma bFGF, Median ([1]; Day 64): 21
- plasma sMET, Median ([1]; Day 64): 923
- plasma sPLT-3, Median ([1]; Day 64): 87
- change in plasma PIGF [1, 3]: increases
- change in plasma VEGF [1, 3]: increases
- change in plasma VEGF-D [1, 3]: increases
- change in plasma HGF ([1]; day 8): initially decreased
- change in plasma SDF1a ([1]; day 22): transiently increased; also recorded: increases
- change in plasma HGF ([1]; day 64): increased
- change in plasma CAIX ([1]; days 43 and 64): increases
- change in plasma sVEGFR2 ([1]; days 43 and 64): significantly decreased
- change in plasma bFGF over time ([1]; in vivo): did not significantly change
- change in plasma sMET over time ([1]; in vivo): did not significantly change
- change in plasma sTIE-2 over time ([1]; in vivo): did not significantly change
- change in plasma sVEGFR1 over time ([1]; in vivo): did not significantly change
- patients reporting a decrease in pain since baseline ([2]; of 21 patients with pain at entry who completed a survey): 52%
- patients with decreased pain who discontinued pain medications ([2]; of the eleven with decreased pain): 10 patients
